Assay results as given in patent US20050239656A1, “Pyridine compounds or salts thereof and herbicides containing the same” (priority 2002, published 2005).

Experiments:
barnyardgrass [1] = experiment: Test Example 2: soil surface treatment, upland pot test; format: in vivo, Echinochloa crus-galli L.; details: observed 20th to 28th day
Outline: (§1)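 Herbicidal effect is given as percent growth control, assessed by eye 20 to 28 days post-spray against untreated plants (0) and full kill (100). Treatment: soil-surface application one day after sowing, formulated product diluted in 1,500 L/ha water, upland soil, 1/170,000 ha pots.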

rice = experiment: as above; format: in vivo, Oryza sativa L.; details: observed 20th to 28th day
Outline: as §1

japanese bulrush = experiment: Test Example 3: paddy pot test, application under submerged conditions; format: in vivo, Scirpus juncoides; details: active ingredient 250 g/ha; submerged application at 0.5 leaf stage; visually observed 14 days after application; 0 = non-treated, 100 = complete kill
Outline: (§2)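 Visual rating of growth control (0% equals untreated, 100% complete kill) made 14 days after treatment. Compound, formulated as wettable powder or emulsifiable concentrate and diluted in water, was pipetted under submerged conditions at predetermined active-ingredient doses once weeds reached 0.5-leaf (barnyardgrass, bulrush) or primary-leaf (wapato, from tubers) stage. Pots of greenhouse paddy soil held 3–4 cm flooding.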

rice (var. Nihonbare) = experiment: Test Example 3: paddy pot test, transplanted rice; format: in vivo, Oryza sativa L.; details: active ingredient 250 g/ha, applied 4th day after transplantation, visually observed 21st day after application, 0 = non-treated, 100 = complete kill
Outline: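 Visual crop-injury rating (0 = as untreated, 100 = complete kill, %) taken 21 days post-application. Treatment: formulated compound, water-diluted, pipetted into 3–4 cm flood water at a preset active-ingredient dose, 4 days after transplanting 2-leaf Nihonbare rice 3 cm deep in puddled paddy soil.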

redroot pigweed = experiment: Test Example 2: soil surface treatment, upland pot test; format: in vivo, Amaranthus retroflexus L.; details: observed 20th to 28th day
Outline: as §1

prickly sida = experiment: as above; format: in vivo, Sida spinosa L.; details: observed 20th to 28th day
Outline: as §1

barnyardgrass [2] = experiment: Test Example 3: paddy pot test, application under submerged conditions; format: in vivo, Echinochloa crus-galli L.; details: active ingredient 250 g/ha; submerged application at 0.5 leaf stage; visually observed 14 days after application; 0 = non-treated, 100 = complete kill
Outline: as §2

crabgrass = experiment: Test Example 2: soil surface treatment, upland pot test; format: in vivo, Digitaria sanguinalis L.; details: observed 20th to 28th day
Outline: as §1

corn = experiment: as above; format: in vivo, Zea mays L.; details: observed 20th to 28th day
Outline: as §1

wheat = experiment: as above; format: in vivo, Triticum spp.; details: observed 20th to 28th day
Description: Upland field soil was put into a 1/170,000 ha pot, and seed of various plants (barnyardgrass, crabgrass, green foxtail, redroot pigweed, prickly sida, velvetleaf, rice, wheat, corn, soybean) were sown. On the 1st day after the sowing, a wettable powder or emulsifiable concentrate having the compound of the present invention formulated in accordance with a usual formulation method, was weighed so that the active ingredient would be a predetermined amount, and diluted with water in an amount of 1,500 L/ha. The herbicide thus adjusted was applied by a small size sprayer for soil surface treatment. On the 20th to 28th days after the application of the herbicide, the growth of the respective plants was visually observed, and the herbicidal effects were evaluated by the growth controlling degrees (%) ranging from 0 (equivalent to the non-treated plot) to 100 (complete kill), whereby the results shown in Table 4, were obtained.

green foxtail = experiment: as above; format: in vivo, Setaria viridis L.; details: observed 20th to 28th day
Outline: as §1

soybean = experiment: as above; format: in vivo, Glycine max Merr.; details: observed 20th to 28th day
Outline: as §1

velvetleaf = experiment: as above; format: in vivo, Abutilon theophrasti MEDIC.; details: observed 20th to 28th day
Outline: as §1

CC(C)C(c1cnccc1C(F)(F)F)N(C)C(=O)C(F)=Cc1ccccc1 (stereo not drawn) [Compound I-207]
Growth controlling degree (%) Barnyardgrass (barnyardgrass [1]; active ingredient 250 g/ha): 100% | Growth controlling degree (%) Rice (rice; active ingredient 250 g/ha): 40% | Growth controlling degree (%) Japanese bulrush (japanese bulrush): 100% | Growth controlling degree (%) Rice (rice (var. Nihonbare)): 10% | Growth controlling degree (%) Redroot pigweed (redroot pigweed; active ingredient 250 g/ha): 60% | Growth controlling degree (%) Prickly sida (prickly sida; active ingredient 250 g/ha): 80% | Growth controlling degree (%) Barnyardgrass (barnyardgrass [2]): 98% | Growth controlling degree (%) Crabgrass (crabgrass; active ingredient 250 g/ha): 98% | Growth controlling degree (%) Corn (corn; active ingredient 250 g/ha): 30% | Growth controlling degree (%) wheat (wheat; active ingredient 250 g/ha): 20% | Growth controlling degree (%) Green foxtail (green foxtail; active ingredient 250 g/ha): 100% | Growth controlling degree (%) Soyabean (soybean; active ingredient 250 g/ha): 30% | Growth controlling degree (%) Velvetleaf (velvetleaf; active ingredient 250 g/ha): 50%

CC(C)C(c1cnccc1C(F)(F)F)N(C)C(=O)C(F)(F)F (stereo not drawn) [Compound I-209]
Growth controlling degree (%) Barnyardgrass (barnyardgrass [1]; active ingredient 250 g/ha): 100% | Growth controlling degree (%) Rice (rice; active ingredient 250 g/ha): 70% | Growth controlling degree (%) Japanese bulrush (japanese bulrush): 100% | Growth controlling degree (%) Rice (rice (var. Nihonbare)): 35% | Growth controlling degree (%) Redroot pigweed (redroot pigweed; active ingredient 250 g/ha): 60% | Growth controlling degree (%) Prickly sida (prickly sida; active ingredient 250 g/ha): 70% | Growth controlling degree (%) Barnyardgrass (barnyardgrass [2]): 98% | Growth controlling degree (%) Crabgrass (crabgrass; active ingredient 250 g/ha): 98% | Growth controlling degree (%) Corn (corn; active ingredient 250 g/ha): 50% | Growth controlling degree (%) wheat (wheat; active ingredient 250 g/ha): 70% | Growth controlling degree (%) Green foxtail (green foxtail; active ingredient 250 g/ha): 100% | Growth controlling degree (%) Soyabean (soybean; active ingredient 250 g/ha): 50% | Growth controlling degree (%) Velvetleaf (velvetleaf; active ingredient 250 g/ha): 60%

CC(C)C(c1cnccc1C(F)(F)F)N(C)C(=O)CCBr (stereo not drawn) [I-201]
Growth controlling degree (%) Barnyardgrass (barnyardgrass [1]; active ingredient 250 g/ha): 100% | Growth controlling degree (%) Rice (rice; active ingredient 250 g/ha): 70% | Growth controlling degree (%) Japanese bulrush (japanese bulrush): 98% | Growth controlling degree (%) Rice (rice (var. Nihonbare)): 10% | Growth controlling degree (%) Redroot pigweed (redroot pigweed; active ingredient 250 g/ha): 70% | Growth controlling degree (%) Prickly sida (prickly sida; active ingredient 250 g/ha): 60% | Growth controlling degree (%) Barnyardgrass (barnyardgrass [2]): 98% | Growth controlling degree (%) Crabgrass (crabgrass; active ingredient 250 g/ha): 100% | Growth controlling degree (%) Corn (corn; active ingredient 250 g/ha): 40% | Growth controlling degree (%) wheat (wheat; active ingredient 250 g/ha): 60% | Growth controlling degree (%) Green foxtail (green foxtail; active ingredient 250 g/ha): 100% | Growth controlling degree (%) Soyabean (soybean; active ingredient 250 g/ha): 40% | Growth controlling degree (%) Velvetleaf (velvetleaf; active ingredient 250 g/ha): 40%

CC(C)C(Br)C(=O)N(C)C(c1cnccc1C(F)(F)F)C(C)C (stereo not drawn) [Compound I-197]
Growth controlling degree (%) Barnyardgrass (barnyardgrass [1]; active ingredient 500 g/ha): 100% | Growth controlling degree (%) Rice (rice; active ingredient 500 g/ha): 40% | Growth controlling degree (%) Japanese bulrush (japanese bulrush): 98% | Growth controlling degree (%) Rice (rice (var. Nihonbare)): 0% | Growth controlling degree (%) Redroot pigweed (redroot pigweed; active ingredient 500 g/ha): 90% | Growth controlling degree (%) Prickly sida (prickly sida; active ingredient 500 g/ha): 70% | Growth controlling degree (%) Barnyardgrass (barnyardgrass [2]): 100% | Growth controlling degree (%) Crabgrass (crabgrass; active ingredient 500 g/ha): 100% | Growth controlling degree (%) Corn (corn; active ingredient 500 g/ha): 20% | Growth controlling degree (%) wheat (wheat; active ingredient 500 g/ha): 50% | Growth controlling degree (%) Green foxtail (green foxtail; active ingredient 500 g/ha): 100% | Growth controlling degree (%) Soyabean (soybean; active ingredient 500 g/ha): 10% | Growth controlling degree (%) Velvetleaf (velvetleaf; active ingredient 500 g/ha): 50%

CC(C)=CC(=O)N(C)C(c1cnccc1C(F)(F)F)C(C)C (stereo not drawn) [Compound I-205]
Growth controlling degree (%) Barnyardgrass (barnyardgrass [1]; active ingredient 250 g/ha): 100% | Growth controlling degree (%) Rice (rice; active ingredient 250 g/ha): 70% | Growth controlling degree (%) Japanese bulrush (japanese bulrush): 98% | Growth controlling degree (%) Rice (rice (var. Nihonbare)): 20% | Growth controlling degree (%) Redroot pigweed (redroot pigweed; active ingredient 250 g/ha): 80% | Growth controlling degree (%) Prickly sida (prickly sida; active ingredient 250 g/ha): 70% | Growth controlling degree (%) Barnyardgrass (barnyardgrass [2]): 100% | Growth controlling degree (%) Crabgrass (crabgrass; active ingredient 250 g/ha): 100% | Growth controlling degree (%) Corn (corn; active ingredient 250 g/ha): 40% | Growth controlling degree (%) wheat (wheat; active ingredient 250 g/ha): 95% | Growth controlling degree (%) Green foxtail (green foxtail; active ingredient 250 g/ha): 100% | Growth controlling degree (%) Soyabean (soybean; active ingredient 250 g/ha): 30% | Growth controlling degree (%) Velvetleaf (velvetleaf; active ingredient 250 g/ha): 60%

CC(C)C(c1cnccc1C(F)(F)F)N(C)S(=O)(=O)c1ccccc1Cl (racemic) [Compound I-126]
Growth controlling degree (%) Barnyardgrass (barnyardgrass [1]; active ingredient 500 g/ha): 80% | Growth controlling degree (%) Rice (rice; active ingredient 500 g/ha): 20% | Growth controlling degree (%) Redroot pigweed (redroot pigweed; active ingredient 500 g/ha): 30% | Growth controlling degree (%) Prickly sida (prickly sida; active ingredient 500 g/ha): 50% | Growth controlling degree (%) Crabgrass (crabgrass; active ingredient 500 g/ha): 30% | Growth controlling degree (%) Corn (corn; active ingredient 500 g/ha): 0% | Growth controlling degree (%) wheat (wheat; active ingredient 500 g/ha): 10% | Growth controlling degree (%) Green foxtail (green foxtail; active ingredient 500 g/ha): 70% | Growth controlling degree (%) Soyabean (soybean; active ingredient 500 g/ha): 0% | Growth controlling degree (%) Velvetleaf (velvetleaf; active ingredient 500 g/ha): 10%
